# According to US8735443B2, “Method of treating diabetes-related vascular complications” (Kuwait University, priority 2008, dated 2014):
# How the values were obtained:
# [1] = Cell viability after hydrogen peroxide (Cell Counting Kit-8), diabetic fibroblasts; assay type: cell-based, rat; details: female, Coto Kakizaki (diabetic), rat, primary dermal fibroblasts from diabetic rats (DFs), DFs, 16 hours, read-out: loss in cell viability
# Description: To determine the effect of α-lipoic acid on isolated cells from normal and diabetic rats, primary rat fibroblasts were derived from dorsal skin biopsies performed on four diabetic Coto Kakizaki rats (DFs) and four age-matched (12-14 months) and sex-matched (female) Wistar control rats (CFs). After sterilization in povidine solution, the rat skin was washed in sterile water and rinsed in 70% ethanol in phosphate-buffered saline (PBS). The epidermis and dermis were separated following overnight incubation in 0.25% Trypsin/EDTA at 4° C. Samples were washed, diced and digested for thirty minutes at 37° C. in collagenase type I (250 U/ml) dissolved in Dulbecco's modified Eagle medium (DMEM; Invitrogen) containing penicillin (100 U/ml), 2 mM L-glutamine and 26 mM HEPES. After collagenase treatment, the cells were dislodged, centrifuged and resuspended in medium supplemented with 10% fetal bovine serum. The cells were grown under standard conditions, and the medium was changed every three to four days. Control and diabetic fibroblasts were grown under normo-glycemic conditions (5.5 mM glucose) and used in experiments at passage 3 to 5.
# Fibroblasts were seeded at 1×10^4 cells/well on a 96-well plate. After a 24 hour incubation period, the cells were exposed to various concentrations of HP in serum-free medium at 37° C. for 2 hours [lactate dehydrogenase (LDH), a marker for necrotic cell death], or for 16 hours (cell viability). Quantification of cell viability was assessed using a Cell Counting Kit-8 (Dojindo, Kumamoto, Japan). The values obtained were normalized to the vehicle-treated cells. To measure the rate of necrotic cell death, an LDH release assay was performed using a CytoTox-ONE Homogeneous Membrane Integrity Assay kit (Promega). Expression of Nrf2 was inhibited by small-interfering RNA (siRNA) oligonucleotides. The sequences were designed and synthesized by Qiagen. The best silencing efficiency was obtained by incubating 2.0×10^5 cells/well in a 6-well plate with complexes formed by 5 nM siRNA (1 μl) and 9 μL of HiPerfect transfection reagent (Qiagen) dissolved in 90 μl medium, according to the manufacturer's instructions. The transfection was achieved by adding 0.9 ml of medium to the seeded cells followed by 100 μl of siRNA/HiPerfect complex. Knock-out efficiency was verified by real-time PCR and Western blot. Twenty-four hours later, 1 ml of fresh medium was added; 48 hr after transfection the cells were exposed to either vehicle or lipoic acid at a concentration of 500 μM.
# aortic tissue = experiment: Aortic superoxide production, lucigenin-enhanced chemiluminescence; assay type: in vivo, rat; details: inhibitor added 60 min before; diphenylene iodonium 0.1 mM, apocynin 3 mM
# Method: In the study, with regard to measurement of vascular superoxide anion formation, O2^− concentration in aortic tissue was determined using a lucigenin-enhanced chemiluminescence method, and the resulting data were further confirmed by a cytochrome c-based technique. Segments of the thoracic aorta were placed into 2 ml Krebs-Henseleit buffer (KHB, pH 7.4), and prewarmed to 37° C. for one hour. Immediately before measurement, rings were transferred to scintillation vials containing KHB with 5 μmol/L lucigenin and the O2^− generated chemiluminescence was recorded for five minutes with a scintillation counter. The amount of O2^− produced was quantified using a standard curve of O2^− generation by xanthine/xanthine oxidase and the data are expressed as nmol per min, per mg, of wet weight. In some experiments, vessels were denuded of endothelium by gentle rubbing of the luminal surface, whereas in others, N^ω-nitro-L-arginine methyl ester (L-NAME) 0.1 mM, diphenylene iodonium 0.1 mM, or apocynin 3 mM were added 60 min before determining O2^− generation.
# rat aortic rings = experiment: Acetylcholine-induced endothelium dependent relaxation of aortic rings in organ chamber; assay type: in vivo; details: diabetic arteries; apocynin 3×10^−4 mol/l, Tiron 10 mmol/l
# Method: In the experiments, with regard to the determination of endothelium dependent relaxation (EDR) in the aorta, EDR in response to various concentrations of acetylcholine (Ach) (10^−9 to 10^−6 mol/l) was assessed in norepinephrine (10^−7 mol/l) preconstructed rat aortic rings using an organ chamber bath. The effects of the NAD(P)H oxidase inhibitor apocynin (3×10^−4 mol/l) and the O2^− scavenger Tiron (10 mmol/l) on Ach-induced responses of diabetic arteries were also considered.
# NAD(P)H oxidase = NAD(P)H oxidase activity in aortic homogenates (lucigenin photoemission); assay type: biochemical, rat; details: inhibitor added to tissue homogenate
# Method: Determination of NAD(P)H oxidase activity in the aorta was determined based on superoxide induced lucigenin photoemission. Enzyme assays were carried out in a final volume of 1 ml. containing (in mM) 50 phosphate buffer; pH 7.0, 1 EGTA, 150 sucrose, 0.5 lucigenin, 0.1 NAD(P)H and tissue homogenate. Enzyme reactions were initiated with the addition of lucigenin. Photoemission, expressed in terms of relative light units (RLU), was measured every 5 min. using a luminometer. All assays were carried out in the dark at room temperature.
# cultured arteries = experiment: Cultured arteries of non-diabetic control animals exposed to TNF-α; design: species or system rat; details: arteries of non-diabetic control animals exposed to TNF-α
compound,measurement,setting,value
"OO [HP, hydrogen peroxide]","cytotoxicity at 16 h, 37.5 uM",[1]; 37.5 uM HP,17%
same,"cytotoxicity at 16 h, 50 uM",[1]; 50 uM HP,55%
same,"cytotoxicity at 16 h, 75 uM",[1]; 75 uM HP,78%
COc1cc(C(C)=O)ccc1O [apocynin],O2− production of aorta of GK diabetic rats,aortic tissue,inhibited
same,Ach-induced relaxation in diabetic arteries,rat aortic rings,improved
c1ccc2c(c1)[I+]c1ccccc1-2 [diphenyleneiodonium],O2− production of aorta of GK diabetic rats,aortic tissue,inhibited
same,reduction of production of O2− in the homogenate,NAD(P)H oxidase,> 95%
"O=S(=O)(O)c1cc(O)c(O)c(S(=O)(=O)O)c1 [tiron, Tiron]",Ach-induced relaxation in diabetic arteries,rat aortic rings,improved
TNF-α,Ach-induced vasorelaxation,cultured arteries,impaired
same,caspase 3/7 activity,cultured arteries,elevated
same,levels of DNA fragmentation,cultured arteries,elevated
same,rate of O2− generation,cultured arteries,elevated
